Laboratory results published in publication PMC6277555, “Short Symmetric-End Antimicrobial Peptides Centered on β-Turn Amino Acids Unit Improve Selectivity and Stability” (Frontiers in Microbiology, 2018).
≈ marks a conversion by molar mass, not a printed value. Each block holds one compound with its values, some of them ahead of it. No end group written: not given here.

Tests used:
E. coli = experiment: Time killing assay; format: cell-based, Escherichia coli; conditions: mean of three independent assays
Protocol: (§1) The ability of peptides to kill bacterial cells was further investigated by analyzing the fraction of cell survival upon peptide treatment at various exposure times according to a previously described method ([Wiradharma et al., 2012]). Briefly, E. coli and S. aureus were treated at MIC and 2 × MIC concentrations with peptides. At various time periods (0, 5, 10, 30, 60, 90, 120, and 150 min), microbial suspensions were diluted at three different dilutions and plated on MHA plates. Microbial colonies were formed and counted after 24 h of incubation. The results were presented as the mean data from three independent assays.

S. aureus ATCC 29213 = format: cell-based, Staphylococcus aureus
Protocol: (§2) The minimal inhibitory concentration (MIC) was determined according to a previously described method ([Chou et al., 2016]). Bacteria were cultured overnight to mid-log phase in MHB at 37°C and then diluted to give final concentrations ranging from 2 × 10^5 to 7 × 10^5 CFU/mL. Then, 50 μL of serial twofold dilutions of the peptides were added to each well in 96-well microtiter plates with a mixed solution containing 0.01% acetic acid and 0.2% bovine serum albumin (BSA, Sigma) was used to dissolve and dilute the peptides. Then, equal amounts of bacterial aliquots were incubated with the above peptide solution for 18-24 h at 37°C. The experiment was performed in triplicate using three replicates for each peptide and each bacterium. The broth was employed as a negative control and the broth with microbial cells was used as a positive control. The lowest concentration of peptide that prevented visible turbidity was defined as the MIC. The condition sensitivity of peptides was tested in an MIC assay in different environments, including salt sensitivity, thermal sensitivity and different pH values similar to our previous method ([[…] et al., 2008]; [Ma et al., 2012]). […] For the heat resistance experiments, the peptides were incubated at 100°C for 30 min and cooled on ice for 10 min. […] The determination methods for these MIC assays were same as described above. To test the effects of serum on the antimicrobial activities of the peptides, human serum was dissolved in MHB to reach final concentrations of 25 and 50%. The determination methods for these MIC assays were same as described above.

S. aureus = experiment: Time killing assay; format: cell-based, Staphylococcus aureus; conditions: mean of three independent assays
Protocol: as §1

B. subtilis CMCC 63501 = format: cell-based, Bacillus subtilis
Protocol: (§3) The minimal inhibitory concentration (MIC) was determined according to a previously described method ([Chou et al., 2016]). Bacteria were cultured overnight to mid-log phase in MHB at 37°C and then diluted to give final concentrations ranging from 2 × 10^5 to 7 × 10^5 CFU/mL. Then, 50 μL of serial twofold dilutions of the peptides were added to each well in 96-well microtiter plates with a mixed solution containing 0.01% acetic acid and 0.2% bovine serum albumin (BSA, Sigma) was used to dissolve and dilute the peptides. Then, equal amounts of bacterial aliquots were incubated with the above peptide solution for 18–24 h at 37°C. The experiment was performed in triplicate using three replicates for each peptide and each bacterium. The broth was employed as a negative control and the broth with microbial cells was used as a positive control. The lowest concentration of peptide that prevented visible turbidity was defined as the MIC.

S. typhimurium ATCC 7731 = format: cell-based, Salmonella entericaserovar Typhimurium
Protocol: as §3

E. coli ATCC25922 = format: cell-based, Escherichia coli
Protocol: as §2

S. faecalis ATCC 29212 = format: cell-based, Streptococcus faecalis
Protocol: as §3

E. coli UB1005 = format: cell-based, Escherichia coli
Protocol: as §3

B. pyocyaneum ATCC 27853 = format: cell-based, Bacterium pyocyaneum
Protocol: as §3

S. pullorum C79-13 = format: cell-based, Salmonella pullorum
Protocol: as §3

S. aureus ATCC 43300 = format: cell-based, Staphylococcus aureus
Protocol: as §3

[1] = tested on: S. epidermidis ATCC 12228; format: cell-based, Staphylococcus epidermidis
Protocol: as §3

[2] = RP-HPLC retention time as measure of relative hydrophobicity; format: physicochemical; conditions: analytical RP-HPLC; hydrophobicity increases with retention time
Protocol: These peptides' […] identified via matrix-assisted laser desorption/ionization time-of-flight mass spectrometry (MALDI-TOF MS, Linear Scientific Inc., United States), using α-cyano-4-hydroxycinnamic acid as the matrix. […] Quantitative peptides were dissolved in deionized water and stored at -20°C before the assessments. The rest of the peptides were stored as powders at -20°C to prevent peptide degradation. The structures and molecular weights of the peptides were verified by MALDI-TOF MS. […] The relative hydrophobicity of the symmetric-end peptides was reliably reflected by their different HPLC retention times, and the hydrophobicity increased with increasing HPLC retention times ([Lee et al., 2014]; [Zhu et al., 2014]). The HPLC retention times for […]

hRBCs = experiment: Hemolytic activity; format: cell-based, human; conditions: peptide concentration resulting in 5% hemolysis of hRBCs; PBS, 1 h, 37°C
Protocol: (§4) The hemolytic activity of the peptides was detected using a previously described modified method ([Wang et al., 2015]). One milliliter of fresh hRBCs was obtained from a healthy donor (Zhihua Wang, Harbin, China) in a polycarbonate tube containing heparin. The collected hRBCs were centrifuged at 1000 × g for 5 min at 4°C and resuspended in PBS buffer (pH 7.2). The hRBCs were washed three times and then incubated with an equal volume of the respective peptide dissolved in PBS for 1 h at 37°C. Then, the hRBC suspension was placed into a 96-well microtiter plater with 50 μL of tested peptide solution at different concentrations and the mixture was incubated for 1 h at 37°C. […] The minimum hemolytic concentrations (MHCs) were defined as the peptide concentrations resulting in 5% hemolysis.

[3] = tested on: Gram-negative and Gram-positive bacterial strains; experiment: Geometric mean of MICs and therapeutic index; format: cell-based
Protocol: as §4, §3

MIC (S. aureus ATCC 29213; ATCC 29213): 8 µM (≈ 17.2 µg/mL) | MIC, CaCl2 (S. aureus ATCC 29213; ATCC 29213): 16 µM (≈ 34.5 µg/mL) | MIC, Control (S. aureus ATCC 29213; ATCC 29213): 8 µM (≈ 17.2 µg/mL) | MIC, FeCl3 (S. aureus ATCC 29213; ATCC 29213): 8 µM (≈ 17.2 µg/mL) | MIC, Heat (100°C) (S. aureus ATCC 29213; ATCC 29213): 16 µM (≈ 34.5 µg/mL) | MIC, KCl (S. aureus ATCC 29213; ATCC 29213): 8 µM (≈ 17.2 µg/mL) | MIC, MgCl2 (S. aureus ATCC 29213; ATCC 29213): 8 µM (≈ 17.2 µg/mL) | MIC, NH4Cl (S. aureus ATCC 29213; ATCC 29213): 8 µM (≈ 17.2 µg/mL) | MIC, NaCl (S. aureus ATCC 29213; ATCC 29213): 32 µM (≈ 69 µg/mL) | MIC, ZnCl2 (S. aureus ATCC 29213; ATCC 29213): 8 µM (≈ 17.2 µg/mL) | MIC, pH 4.0 (S. aureus ATCC 29213; ATCC 29213, pH 4): 8 μM | MIC, pH 6.0 (S. aureus ATCC 29213; ATCC 29213, pH 6): 8 μM | MIC, pH 8.0 (S. aureus ATCC 29213; ATCC 29213, pH 8): 8 μM | MIC, pH 10.0 (S. aureus ATCC 29213; ATCC 29213, pH 10): 16 μM | MIC (B. subtilis CMCC 63501): 8 µM (≈ 17.2 µg/mL) | MIC (S. typhimurium ATCC 7731): 8 µM (≈ 17.2 µg/mL) | MIC (E. coli ATCC25922; ATCC25922): 2 µM (≈ 4.31 µg/mL) | MIC, CaCl2 (E. coli ATCC25922; ATCC25922): 4 µM (≈ 8.62 µg/mL) | MIC, Control (E. coli ATCC25922; ATCC25922): 2 µM (≈ 4.31 µg/mL) | MIC, FeCl3 (E. coli ATCC25922; ATCC25922): 4 µM (≈ 8.62 µg/mL) | MIC, Heat (100°C) (E. coli ATCC25922; ATCC25922): 8 µM (≈ 17.2 µg/mL) | MIC, KCl (E. coli ATCC25922; ATCC25922): 2 µM (≈ 4.31 µg/mL) | MIC, MgCl2 (E. coli ATCC25922; ATCC25922): 2 µM (≈ 4.31 µg/mL) | MIC, NH4Cl (E. coli ATCC25922; ATCC25922): 2 µM (≈ 4.31 µg/mL) | MIC, NaCl (E. coli ATCC25922; ATCC25922): 4 µM (≈ 8.62 µg/mL) | MIC, ZnCl2 (E. coli ATCC25922; ATCC25922): 2 µM (≈ 4.31 µg/mL) | MIC, pH 4.0 (E. coli ATCC25922; ATCC25922, pH 4): 4 μM | MIC, pH 6.0 (E. coli ATCC25922; ATCC25922, pH 6): 4 μM | MIC, pH 8.0 (E. coli ATCC25922; ATCC25922, pH 8): 4 μM | MIC, pH 10.0 (E. coli ATCC25922; ATCC25922, pH 10): 4 μM | MIC (S. faecalis ATCC 29212): 16 µM (≈ 34.5 µg/mL) | MIC (E. coli UB1005): 2 µM (≈ 4.31 µg/mL) | MIC (B. pyocyaneum ATCC 27853): 16 µM (≈ 34.5 µg/mL) | MIC (S. pullorum C79-13): 2 µM (≈ 4.31 µg/mL) | MIC (S. aureus ATCC 43300): 2 µM (≈ 4.31 µg/mL) | MIC [1]: 16 µM (≈ 34.5 µg/mL) | Retained time (HPLC retention time) [2]: 12.56 min
Compound: CC(C)C[C@H](NC(=O)[C@H](CCCNC(=N)N)NC(=O)CNC(=O)CNC(=O)[C@@H](N)CCCNC(=N)N)C(=O)N[C@H]1CSSC[C@@H](C(=O)N[C@H](C(=O)NCC(=O)N[C@@H](CCCNC(=N)N)C(N)=O)C(C)C)NC(=O)[C@H](C(C)C)NC(=O)[C@@H]2CSSC[C@H](NC(=O)[C@H](Cc3ccc(O)cc3)NC1=O)C(=O)N[C@@H](CCCNC(=N)N)C(=O)N[C@@H](CCCNC(=N)N)C(=O)N[C@@H](CCCNC(=N)N)C(=O)N[C@@H](Cc1ccccc1)C(=O)N2 [PG-1, reference compound]
Time to kill E. coli (E. coli; peptide at 1 × MIC): 10 min | Time to kill E. coli (E. coli; peptide at 2 × MIC): 10 min | Time to kill S. aureus (S. aureus; peptide at 1 × MIC): 5 min | Time to kill S. aureus (S. aureus; peptide at 2 × MIC): 10 min

Compound: IHKFWRRWFKHI-NH2 [Qa]
MIC (S. aureus ATCC 29213; ATCC 29213): 8 µM | MIC (B. subtilis CMCC 63501): 32 µM | MIC (S. typhimurium ATCC 7731): 16 µM | MIC (E. coli ATCC25922; ATCC25922): 16 µM | MIC (S. faecalis ATCC 29212): 16 µM | MIC (E. coli UB1005): 8 µM | MIC (B. pyocyaneum ATCC 27853): 16 µM | MIC (S. pullorum C79-13): 16 µM | MIC (S. aureus ATCC 43300): 16 µM | MIC [1]: 16 µM | MHC (minimum hemolytic concentration) (hRBCs): >128 µM | GM (geometric mean of the MIC values) ([3]; all ten tested strains): 14.9 µM | Therapeutic index ([3]; from MHC and GM): 17.2
